From patent US8298994B2, “Substituted 1-(diazinyl)pyrazol-4-ylacetic acids, processes for their preparation and their use as herbicides and plant growth regulators” (Bayer Cropscience AG, priority 2008, dated 2012)

Tests used:
[1] = test system: harmful plants such as Alopecurus myosuroides, Echinochloa crus galli, Setaria viridis and Veronica persica; assay: Pre-emergence herbicidal effect (greenhouse pot test, visual scoring); type: in vivo; conditions: pre-emergence method, application rate of 0.32 kg of active substance per hectare, scored visually after about 3 weeks
From the text: 1. Pre-emergence Herbicidal Effect and Crop Plant Compatibility
Seeds of monocotyledonous or dicotyledonous weeds or crop plants are placed in sandy loam soil in wood-fiber pots and covered with soil. The compounds (I) according to the invention, formulated in the form of wettable powders (WP), are then applied to the surface of the soil cover in the form of an aqueous suspension or emulsion at a water application rate of 600 I/ha (converted), with addition of 0.2% wetting agent.
Following the treatment, the pots are placed in the greenhouse and kept under good growth conditions for the test plants. After about 3 weeks, the activity of the preparations is scored visually in comparison to untreated controls (herbicidal activity in percent (%): 100% activity=the plants have died, 0% activity=like control plants).

[2] = test system: harmful plants such as Avena fatua, Echinochloa crus galli, Lolium multiflorum, Setaria viridis, Veronica persica, Viola tricolor and Alopecurus myosuroides; assay: Post-emergence herbicidal effect (greenhouse pot test, visual scoring); type: in vivo; conditions: post-emergence method, application rate of 0.32 kg or less of active substance per hectare, scored visually after about 3 weeks
Experimental: 2. Post-emergence Herbicidal Effect and Crop Plant Compatibility
Seeds of monocotyledonous and dicotyledonous weeds and crop plants are placed in sandy loam soil in wood-fiber pots, covered with soil, and cultivated in a greenhouse under good growth conditions. 2 to 3 weeks after sowing, the test plants are treated at the one-leaf stage. The compounds (I) according to the invention, formulated as wettable powders (WP), are then sprayed onto the green parts of the plants as an aqueous suspension or emulsion at a water application rate of 600 I/ha (converted), with addition of 0.2% wetting agent. The test plants are allowed to stand in a greenhouse for about 3 weeks under optimum growth conditions, and the effect of the preparations is then scored visually by comparison with untreated controls (herbicidal activity in percent (%): 100% activity=the plants have died, 0% activity=like control plants).

| Structure (SMILES) | herbicidal activity [1] | herbicidal activity [2] |
| --- | --- | --- |
| Cc1nn(-c2cncnc2)c(-c2ccc(Cl)cc2)c1CC(=O)O [Compound 1-28] | good herbicidal activity | good herbicidal activity |
| Cc1nn(-c2cncnc2)c(-c2ccc(Cl)cn2)c1CC(=O)O [Compound 1-116] | good herbicidal activity | good herbicidal activity |
| Cc1nn(-c2cncnc2)c(-c2ccc(Br)cn2)c1CC(=O)O [Compound 1-119] | good herbicidal activity | good herbicidal activity |
| COc1ccnc(-c2c(CC(=O)O)c(C)nn2-c2cncnc2)c1 [Compound 1-154] | good herbicidal activity | good herbicidal activity |
| Cc1cc(C)nc(-c2c(CC(=O)O)c(C)nn2-c2cncnc2)c1 [Compound 1-210] | good herbicidal activity | good herbicidal activity |
| Cc1cnc(-c2c(CC(=O)O)c(C)nn2-c2cncnc2)cn1 [Compound 1-214] | good herbicidal activity | good herbicidal activity |
| Cc1nn(-c2cncnc2)c(-c2cc3ccccc3cn2)c1CC(=O)O [Compound 1-236] | good herbicidal activity | good herbicidal activity |
| COC(=O)Cc1c(C)nn(-c2cncnc2)c1-c1ccccc1 [Compound 2-2] | good herbicidal activity | good herbicidal activity |
| COC(=O)Cc1c(C)nn(-c2cncnc2)c1-c1ccc(C)cc1 [Compound 2-16] | good herbicidal activity | good herbicidal activity |
| COC(=O)Cc1c(C)nn(-c2cncnc2)c1-c1ccc(Cl)cc1 [Compound 2-28] | good herbicidal activity | good herbicidal activity |
| COC(=O)Cc1c(C)nn(-c2cncnc2)c1-c1cc(C)cc(C)c1 [Compound 2-47] | good herbicidal activity | good herbicidal activity |
| COC(=O)Cc1c(C)nn(-c2cncnc2)c1-c1cc(C)cs1 [Compound 2-64] | good herbicidal activity | good herbicidal activity |
| COC(=O)Cc1c(C)nn(-c2cncnc2)c1-c1ccc(Cl)s1 [Compound 2-65] | good herbicidal activity | good herbicidal activity |
| COC(=O)Cc1c(C)nn(-c2cncnc2)c1-c1ccccn1 [Compound 2-116, Methyl[3-methyl-5-(pyridin-2-yl)-1-(pyrimidin-5-yl)-1H-pyrazol-4-yl]acetate] | good herbicidal activity | good herbicidal activity |
| COC(=O)Cc1c(C)nn(-c2cncnc2)c1-c1ccc(Cl)cn1 [Compound 2-117] | good herbicidal activity | good herbicidal activity |
| COC(=O)Cc1c(C)nn(-c2cncnc2)c1-c1ccc(Br)cn1 [Compound 2-120] | good herbicidal activity | good herbicidal activity |
| COC(=O)Cc1c(C)nn(-c2cncnc2)c1-c1ccc(C)cn1 [Compound 2-124] | good herbicidal activity | good herbicidal activity |
| COC(=O)Cc1c(C)nn(-c2cncnc2)c1-c1ccc(F)cc1 [Compound 2-132] | good herbicidal activity | good herbicidal activity |
| COC(=O)Cc1c(C)nn(-c2cncnc2)c1-c1ccc(Cl)c(C)c1 [Compound 2-135] | good herbicidal activity | good herbicidal activity |
| COC(=O)Cc1c(C)nn(-c2cncnc2)c1-c1cc(C)ccn1 [Compound 2-148] | good herbicidal activity | good herbicidal activity |

| Structure (SMILES) | herbicidal activity [1] | herbicidal activity [2] |
| --- | --- | --- |
| COC(=O)Cc1c(C)nn(-c2cncnc2)c1-c1cc(OC)ccn1 [Compound 2-155] | good herbicidal activity | good herbicidal activity |
| COC(=O)Cc1c(C)nn(-c2cncnc2)c1-c1cnc(C)cn1 [Compound 2-215] | good herbicidal activity | good herbicidal activity |
| COC(=O)Cc1c(C)nn(-c2cncnc2)c1-c1nc2ccccc2s1 [Compound 2-217] | good herbicidal activity | good herbicidal activity |
| COC(=O)Cc1c(C)nn(-c2cncnc2)c1-c1ncccn1 [Compound 2-224] | good herbicidal activity | good herbicidal activity |
| COC(=O)Cc1c(C)nn(-c2cncnc2)c1-c1ccc(Br)cc1 [Compound 2-240] | good herbicidal activity | good herbicidal activity |
| COC(=O)Cc1c(C)nn(-c2cncnc2)c1-c1cc2ccccc2cn1 [Compound 2-241] | good herbicidal activity | good herbicidal activity |
| COC(=O)Cc1c(C)nn(-c2cncnc2)c1-c1ccc([N+](=O)[O-])cc1 [Compound 2-243] | good herbicidal activity | good herbicidal activity |
| C=CCc1ccc(-c2c(CC(=O)OC)c(C)nn2-c2cncnc2)nc1 [Compound 2-249] | good herbicidal activity | good herbicidal activity |
| CCOC(=O)Cc1c(C)nn(-c2cncnc2)c1-c1ccc(Cl)cc1 [Compound 3-4] | good herbicidal activity | good herbicidal activity |
| CCOC(=O)Cc1c(C)nn(-c2cncnc2)c1-c1ccc(Cl)cn1 [Compound 3-25] | good herbicidal activity | good herbicidal activity |
| CCOC(=O)Cc1c(C)nn(-c2cncnc2)c1-c1ccc(Br)cn1 [Compound 3-26] | good herbicidal activity | good herbicidal activity |
| CCOC(=O)Cc1c(C)nn(-c2cncnc2)c1-c1cc(C)ccn1 [Compound 3-36] | good herbicidal activity | – |
| C#CCOC(=O)Cc1c(C)nn(-c2cncnc2)c1-c1ccc(Cl)cn1 [Compound 3-112] | good herbicidal activity | good herbicidal activity |
| Cc1nn(-c2cncnc2)c(-c2ccc(Cl)cc2)c1CC(=O)OCC1CC1 [Compound 3-121] | good herbicidal activity | good herbicidal activity |
| Cc1nn(-c2cncnc2)c(-c2ccc(Cl)cn2)c1CC(=O)OCC1CC1 [Compound 3-135] | good herbicidal activity | good herbicidal activity |
| Cc1nn(-c2cncnc2)c(-c2ccc(Br)cn2)c1CC(=O)OCC1CC1 [Compound 3-136] | – | good herbicidal activity |
| CC#CCOC(=O)Cc1c(C)nn(-c2cncnc2)c1-c1ccc(Cl)cc1 [Compound 3-161] | good herbicidal activity | good herbicidal activity |
| CC#CCOC(=O)Cc1c(C)nn(-c2cncnc2)c1-c1ccc(Br)cn1 [Compound 3-176] | good herbicidal activity | good herbicidal activity |
| Cc1nn(-c2cncnc2)c(-c2ccc(Cl)cn2)c1CC(=O)OCC(F)F [Compound 3-353] | good herbicidal activity | good herbicidal activity |
